In patent US11253517B2, “Small molecule regulators of steroid receptor coactivators and methods of use thereof” (BAYLOR COLLEGE OF MEDICINE, priority 2016, dated 2022):

Tests used:
Assay in all cases: Kinase-Glo Luminescent Kinase Assay
Type in all cases: biochemical
CK1a 1 = biological target: T1, CK1a 1 (Homo sapiens, UniProt P48729)
T1 construct: purchased Promega
Experimental: (§1) SI-12 was also tested for its ability to disrupt kinase activity. The effects of the compound were tested on a panel of 24 kinases using a Kinase-Glo Luminescent Kinase Assay system (Promega; Madison, Wis.). SI-12 was tested, at concentrations of 1000 nM, 50 nM, and 5 nM, for its ability to interfere with recombinant kinases in the assay system. The amount of ATP to ADP conversion in the presence of SI-12 was compared to a DMSO vehicle control. The values shown in Table 3 represent the percentage of kinase activity compared to a DMSO vehicle control.
(§2) In Table 3, “−” represents less than 20% inhibition; “+” represents from 20% to 40% inhibition; “++” represents from 40% to 60% inhibition; and “+++” represents greater than 60% inhibition.

CK2a 1 = biological target: T2, CK2a 1 (Homo sapiens, UniProt P68400)
T2 construct: purchased Promega
Experimental: as §1, §2

DAPK1 = biological target: T3, DAPK1 (Homo sapiens, UniProt P53355)
T3 construct: purchased Promega
Experimental: as §1, §2

FGFR1 = biological target: T4, FGFR1 (Homo sapiens, UniProt P11362)
T4 construct: purchased Promega
Experimental: as §1, §2

GSK3B = biological target: T5, GSK3B (Homo sapiens, UniProt P49841)
T5 construct: purchased Promega
Experimental: as §1, §2

IRAK4 = biological target: T6, IRAK4 (Homo sapiens, UniProt Q9NWZ3)
T6 construct: purchased Promega
T6 sequence (Q9NWZ3 1-460): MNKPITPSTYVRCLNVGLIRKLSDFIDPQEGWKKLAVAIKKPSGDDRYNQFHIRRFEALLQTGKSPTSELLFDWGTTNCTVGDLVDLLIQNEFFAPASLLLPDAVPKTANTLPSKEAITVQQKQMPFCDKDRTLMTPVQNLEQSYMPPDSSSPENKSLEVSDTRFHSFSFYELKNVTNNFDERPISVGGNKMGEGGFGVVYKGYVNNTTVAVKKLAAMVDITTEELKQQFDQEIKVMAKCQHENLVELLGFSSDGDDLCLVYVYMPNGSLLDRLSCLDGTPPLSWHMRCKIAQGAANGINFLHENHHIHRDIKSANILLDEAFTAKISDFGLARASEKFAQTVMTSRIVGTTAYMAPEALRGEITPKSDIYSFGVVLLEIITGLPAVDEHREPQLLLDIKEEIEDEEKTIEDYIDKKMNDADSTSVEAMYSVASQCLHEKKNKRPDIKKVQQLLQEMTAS
Experimental: as §1, §2

JAK3 = biological target: T7, JAK3 (Homo sapiens, UniProt P52333)
T7 construct: purchased Promega
T7 sequence (P52333 1-1124): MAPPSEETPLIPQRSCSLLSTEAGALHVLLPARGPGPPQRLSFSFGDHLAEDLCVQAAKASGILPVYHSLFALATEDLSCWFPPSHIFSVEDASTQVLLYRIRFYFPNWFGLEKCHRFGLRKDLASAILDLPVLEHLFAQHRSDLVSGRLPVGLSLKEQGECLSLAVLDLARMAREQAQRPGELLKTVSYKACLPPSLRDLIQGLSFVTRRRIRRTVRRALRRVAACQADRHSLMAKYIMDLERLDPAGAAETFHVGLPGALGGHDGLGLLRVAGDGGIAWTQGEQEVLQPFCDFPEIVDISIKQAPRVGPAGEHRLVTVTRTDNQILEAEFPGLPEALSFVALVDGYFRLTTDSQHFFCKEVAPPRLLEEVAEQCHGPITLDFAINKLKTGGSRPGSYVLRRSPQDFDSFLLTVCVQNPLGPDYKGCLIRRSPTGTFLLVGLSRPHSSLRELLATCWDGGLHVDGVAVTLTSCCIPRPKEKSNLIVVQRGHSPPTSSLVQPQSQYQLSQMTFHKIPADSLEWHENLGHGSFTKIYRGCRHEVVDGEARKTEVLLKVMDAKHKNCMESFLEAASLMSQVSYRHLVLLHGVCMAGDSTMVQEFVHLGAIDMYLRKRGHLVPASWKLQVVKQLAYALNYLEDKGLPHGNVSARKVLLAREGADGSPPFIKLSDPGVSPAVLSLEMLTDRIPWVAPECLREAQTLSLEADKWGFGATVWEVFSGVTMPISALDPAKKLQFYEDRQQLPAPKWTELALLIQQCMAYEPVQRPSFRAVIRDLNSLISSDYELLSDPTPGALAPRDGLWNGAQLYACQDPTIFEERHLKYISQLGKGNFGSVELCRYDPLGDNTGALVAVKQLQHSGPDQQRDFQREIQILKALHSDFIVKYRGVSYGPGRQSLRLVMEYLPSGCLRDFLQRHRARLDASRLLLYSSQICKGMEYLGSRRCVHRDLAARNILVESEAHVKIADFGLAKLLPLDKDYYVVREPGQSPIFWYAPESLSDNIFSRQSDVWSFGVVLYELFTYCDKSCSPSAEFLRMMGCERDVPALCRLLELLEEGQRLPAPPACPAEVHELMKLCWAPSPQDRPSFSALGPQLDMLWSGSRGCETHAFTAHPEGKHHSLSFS
Experimental: as §1, §2

MAPKAPK2 = biological target: T8, MAPKAPK2 (Homo sapiens, UniProt P49137)
T8 construct: purchased Promega
Experimental: as §1, §2

MINK1 = biological target: T9, MINK1 (Homo sapiens, UniProt Q8N4C8)
T9 construct: purchased Promega
Experimental: as §1, §2

P38A = biological target: T10, P38A (Homo sapiens, UniProt Q16539)
T10 construct: purchased Promega
Experimental: as §1, §2

PAK1/CDC42 = biological target: T11, PAK1/CDC42 (Homo sapiens, UniProt Q13153)
T11 construct: purchased Promega
Experimental: as §1, §2

SYK = biological target: T12, SYK (Homo sapiens, UniProt P43405)
T12 construct: purchased Promega
Experimental: as §1, §2

T11 sequence (Q13153 whole entry): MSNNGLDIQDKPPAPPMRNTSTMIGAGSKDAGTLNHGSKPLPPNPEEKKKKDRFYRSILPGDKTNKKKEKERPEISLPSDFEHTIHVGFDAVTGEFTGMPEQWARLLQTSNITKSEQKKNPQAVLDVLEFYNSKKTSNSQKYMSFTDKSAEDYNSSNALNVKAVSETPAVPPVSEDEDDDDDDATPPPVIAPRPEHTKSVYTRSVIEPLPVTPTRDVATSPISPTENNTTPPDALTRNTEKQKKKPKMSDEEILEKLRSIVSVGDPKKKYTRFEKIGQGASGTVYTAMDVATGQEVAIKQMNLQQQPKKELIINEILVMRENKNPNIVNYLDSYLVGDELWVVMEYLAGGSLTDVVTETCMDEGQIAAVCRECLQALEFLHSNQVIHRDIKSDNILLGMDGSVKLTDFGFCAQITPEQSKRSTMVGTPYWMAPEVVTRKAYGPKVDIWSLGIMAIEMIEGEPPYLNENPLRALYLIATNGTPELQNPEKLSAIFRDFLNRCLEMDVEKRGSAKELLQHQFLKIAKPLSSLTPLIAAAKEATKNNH
T8 sequence (P49137 whole entry): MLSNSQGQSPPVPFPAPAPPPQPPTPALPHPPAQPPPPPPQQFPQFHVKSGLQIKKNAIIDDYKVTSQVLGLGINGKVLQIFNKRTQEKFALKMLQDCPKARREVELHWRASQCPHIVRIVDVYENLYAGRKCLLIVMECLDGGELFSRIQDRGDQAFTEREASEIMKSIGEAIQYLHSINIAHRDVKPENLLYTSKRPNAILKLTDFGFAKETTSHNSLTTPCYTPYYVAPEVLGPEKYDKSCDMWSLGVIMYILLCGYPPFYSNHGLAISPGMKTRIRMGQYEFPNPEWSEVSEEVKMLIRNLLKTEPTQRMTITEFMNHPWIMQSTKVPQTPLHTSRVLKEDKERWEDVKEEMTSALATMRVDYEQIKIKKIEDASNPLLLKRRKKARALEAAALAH
T4 sequence (P11362 22-822): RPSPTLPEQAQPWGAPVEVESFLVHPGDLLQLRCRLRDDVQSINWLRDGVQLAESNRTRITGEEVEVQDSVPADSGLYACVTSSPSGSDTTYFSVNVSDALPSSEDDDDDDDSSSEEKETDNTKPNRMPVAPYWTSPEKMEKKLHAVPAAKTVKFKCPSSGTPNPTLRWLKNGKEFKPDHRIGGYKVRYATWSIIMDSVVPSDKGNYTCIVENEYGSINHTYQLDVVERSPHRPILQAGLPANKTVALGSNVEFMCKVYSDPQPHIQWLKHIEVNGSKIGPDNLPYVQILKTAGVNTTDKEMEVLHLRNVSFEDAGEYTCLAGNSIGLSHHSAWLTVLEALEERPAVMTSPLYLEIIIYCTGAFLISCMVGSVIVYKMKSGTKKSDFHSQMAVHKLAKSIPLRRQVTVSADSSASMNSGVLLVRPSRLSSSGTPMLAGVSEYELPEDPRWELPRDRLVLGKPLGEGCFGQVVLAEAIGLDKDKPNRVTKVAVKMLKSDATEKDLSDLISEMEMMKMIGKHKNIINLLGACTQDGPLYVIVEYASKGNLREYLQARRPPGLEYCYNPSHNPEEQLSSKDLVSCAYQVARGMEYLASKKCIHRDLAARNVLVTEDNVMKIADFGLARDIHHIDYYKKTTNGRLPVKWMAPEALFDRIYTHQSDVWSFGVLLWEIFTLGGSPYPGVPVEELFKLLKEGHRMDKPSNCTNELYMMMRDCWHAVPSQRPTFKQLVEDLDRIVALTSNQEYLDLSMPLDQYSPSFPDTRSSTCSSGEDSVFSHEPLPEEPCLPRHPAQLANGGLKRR
T10 sequence (Q16539 2-360 limits assumed): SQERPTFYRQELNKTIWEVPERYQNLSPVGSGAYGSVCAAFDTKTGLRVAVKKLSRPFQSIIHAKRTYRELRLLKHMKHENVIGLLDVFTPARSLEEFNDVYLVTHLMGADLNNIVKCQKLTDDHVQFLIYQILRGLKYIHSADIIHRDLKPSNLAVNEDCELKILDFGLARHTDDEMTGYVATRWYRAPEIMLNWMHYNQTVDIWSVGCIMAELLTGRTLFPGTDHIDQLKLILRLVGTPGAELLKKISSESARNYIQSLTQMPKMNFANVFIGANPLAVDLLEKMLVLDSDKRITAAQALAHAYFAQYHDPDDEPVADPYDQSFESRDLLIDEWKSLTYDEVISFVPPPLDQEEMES
T3 sequence (P53355 whole entry): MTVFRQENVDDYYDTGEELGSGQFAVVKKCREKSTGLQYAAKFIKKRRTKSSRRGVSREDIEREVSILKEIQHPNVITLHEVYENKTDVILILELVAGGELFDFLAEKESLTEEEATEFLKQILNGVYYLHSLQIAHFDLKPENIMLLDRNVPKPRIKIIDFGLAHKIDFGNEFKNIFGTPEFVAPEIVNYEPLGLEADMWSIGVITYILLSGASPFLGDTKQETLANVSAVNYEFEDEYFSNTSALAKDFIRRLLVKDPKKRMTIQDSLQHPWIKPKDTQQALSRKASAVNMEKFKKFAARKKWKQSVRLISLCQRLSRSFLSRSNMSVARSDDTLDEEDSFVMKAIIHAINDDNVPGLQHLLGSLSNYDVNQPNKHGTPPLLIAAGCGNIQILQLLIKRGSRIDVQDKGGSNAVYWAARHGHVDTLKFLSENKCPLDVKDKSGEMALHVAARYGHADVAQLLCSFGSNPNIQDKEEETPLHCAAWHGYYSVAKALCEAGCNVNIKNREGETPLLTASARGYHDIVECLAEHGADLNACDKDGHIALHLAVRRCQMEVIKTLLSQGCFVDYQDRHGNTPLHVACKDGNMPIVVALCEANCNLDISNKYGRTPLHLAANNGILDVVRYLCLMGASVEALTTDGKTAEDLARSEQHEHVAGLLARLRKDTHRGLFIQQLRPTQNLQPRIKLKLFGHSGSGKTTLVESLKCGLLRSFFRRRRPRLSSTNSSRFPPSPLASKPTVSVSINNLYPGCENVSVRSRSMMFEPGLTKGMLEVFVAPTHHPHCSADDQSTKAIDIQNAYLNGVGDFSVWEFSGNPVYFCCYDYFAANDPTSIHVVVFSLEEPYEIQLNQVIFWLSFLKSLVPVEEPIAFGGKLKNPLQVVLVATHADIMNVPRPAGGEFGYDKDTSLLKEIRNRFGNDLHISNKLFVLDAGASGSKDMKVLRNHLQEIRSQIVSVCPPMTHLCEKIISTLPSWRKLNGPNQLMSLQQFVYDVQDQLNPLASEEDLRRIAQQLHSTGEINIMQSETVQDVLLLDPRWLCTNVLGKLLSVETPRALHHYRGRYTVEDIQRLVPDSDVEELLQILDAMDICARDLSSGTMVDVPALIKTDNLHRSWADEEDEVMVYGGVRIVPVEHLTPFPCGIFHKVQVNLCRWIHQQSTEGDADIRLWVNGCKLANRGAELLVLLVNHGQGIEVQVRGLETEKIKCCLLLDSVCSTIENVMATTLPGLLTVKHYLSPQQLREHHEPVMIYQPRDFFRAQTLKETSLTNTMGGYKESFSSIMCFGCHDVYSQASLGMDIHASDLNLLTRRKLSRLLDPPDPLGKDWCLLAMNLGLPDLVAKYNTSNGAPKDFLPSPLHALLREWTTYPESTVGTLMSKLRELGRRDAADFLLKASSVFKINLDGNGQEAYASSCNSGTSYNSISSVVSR
T5 sequence (P49841 whole entry): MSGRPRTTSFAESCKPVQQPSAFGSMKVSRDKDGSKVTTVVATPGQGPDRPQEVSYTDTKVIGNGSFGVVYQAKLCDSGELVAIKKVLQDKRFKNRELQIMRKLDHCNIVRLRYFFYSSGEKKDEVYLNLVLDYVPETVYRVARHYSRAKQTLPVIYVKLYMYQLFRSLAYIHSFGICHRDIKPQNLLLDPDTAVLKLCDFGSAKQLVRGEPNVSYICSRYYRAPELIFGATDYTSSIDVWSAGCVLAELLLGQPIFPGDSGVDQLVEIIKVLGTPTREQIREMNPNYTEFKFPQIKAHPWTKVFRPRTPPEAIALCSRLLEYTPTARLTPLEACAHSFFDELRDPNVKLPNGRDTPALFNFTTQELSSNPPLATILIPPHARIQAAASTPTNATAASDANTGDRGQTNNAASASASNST
T1 sequence (P48729 whole entry): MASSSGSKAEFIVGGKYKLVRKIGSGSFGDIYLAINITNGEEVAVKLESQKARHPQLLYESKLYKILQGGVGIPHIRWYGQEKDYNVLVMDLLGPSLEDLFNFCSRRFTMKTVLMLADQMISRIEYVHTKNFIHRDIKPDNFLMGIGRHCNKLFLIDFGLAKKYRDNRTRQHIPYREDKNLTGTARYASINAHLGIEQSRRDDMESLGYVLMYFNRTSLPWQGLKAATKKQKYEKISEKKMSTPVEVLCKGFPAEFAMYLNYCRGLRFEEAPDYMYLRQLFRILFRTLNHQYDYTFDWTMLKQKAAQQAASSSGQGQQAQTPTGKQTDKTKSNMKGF
T2 sequence (P68400 whole entry): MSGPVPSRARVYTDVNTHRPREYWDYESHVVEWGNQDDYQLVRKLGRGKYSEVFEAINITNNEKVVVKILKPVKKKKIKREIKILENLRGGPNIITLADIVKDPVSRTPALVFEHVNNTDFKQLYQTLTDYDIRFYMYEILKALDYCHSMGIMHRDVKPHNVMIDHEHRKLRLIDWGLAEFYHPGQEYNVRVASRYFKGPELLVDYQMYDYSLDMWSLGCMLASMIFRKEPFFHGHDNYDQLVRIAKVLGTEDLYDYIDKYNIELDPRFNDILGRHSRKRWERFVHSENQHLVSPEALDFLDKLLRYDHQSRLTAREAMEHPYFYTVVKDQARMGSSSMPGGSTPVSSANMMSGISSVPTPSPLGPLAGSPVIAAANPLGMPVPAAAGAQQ

SMILES: CC(=NNc1nc2cc(F)c(F)cc2n1C)c1ccc(F)cn1 [SI-12]
- CK1a 1 kinase inhibition (CK1a 1; 5 nM): − (less than 20% inhibition)
- CK1a 1 kinase inhibition (CK1a 1; 50 nM): − (less than 20% inhibition)
- CK1a 1 kinase inhibition (CK1a 1; 1000 nM): − (less than 20% inhibition)
- CK2a 1 kinase inhibition (CK2a 1; 5 nM): − (less than 20% inhibition)
- CK2a 1 kinase inhibition (CK2a 1; 50 nM): − (less than 20% inhibition)
- CK2a 1 kinase inhibition (CK2a 1; 1000 nM): − (less than 20% inhibition)
- DAPK1 kinase inhibition (DAPK1; 5 nM): − (less than 20% inhibition)
- DAPK1 kinase inhibition (DAPK1; 50 nM): − (less than 20% inhibition)
- DAPK1 kinase inhibition (DAPK1; 1000 nM): − (less than 20% inhibition)
- FGFR1 kinase inhibition (FGFR1; 5 nM): + (from 20% to 40% inhibition)
- FGFR1 kinase inhibition (FGFR1; 50 nM): − (less than 20% inhibition)
- FGFR1 kinase inhibition (FGFR1; 1000 nM): − (less than 20% inhibition)
- GSK3B kinase inhibition (GSK3B; 5 nM): − (less than 20% inhibition)
- GSK3B kinase inhibition (GSK3B; 50 nM): − (less than 20% inhibition)
- GSK3B kinase inhibition (GSK3B; 1000 nM): − (less than 20% inhibition)
- IRAK4 kinase inhibition (IRAK4; 5 nM): − (less than 20% inhibition)
- IRAK4 kinase inhibition (IRAK4; 50 nM): − (less than 20% inhibition)
- IRAK4 kinase inhibition (IRAK4; 1000 nM): − (less than 20% inhibition)
- JAK3 kinase inhibition (JAK3; 5 nM): − (less than 20% inhibition)
- JAK3 kinase inhibition (JAK3; 50 nM): + (from 20% to 40% inhibition)
- JAK3 kinase inhibition (JAK3; 1000 nM): + (from 20% to 40% inhibition)
- MAPKAPK2 kinase inhibition (MAPKAPK2; 5 nM): − (less than 20% inhibition)
- MAPKAPK2 kinase inhibition (MAPKAPK2; 50 nM): − (less than 20% inhibition)
- MAPKAPK2 kinase inhibition (MAPKAPK2; 1000 nM): − (less than 20% inhibition)
- MINK1 kinase inhibition (MINK1; 5 nM): − (less than 20% inhibition)
- MINK1 kinase inhibition (MINK1; 50 nM): − (less than 20% inhibition)
- MINK1 kinase inhibition (MINK1; 1000 nM): − (less than 20% inhibition)
- P38A kinase inhibition (P38A; 5 nM): − (less than 20% inhibition)
- P38A kinase inhibition (P38A; 50 nM): − (less than 20% inhibition)
- P38A kinase inhibition (P38A; 1000 nM): − (less than 20% inhibition)
- PAK1/CDC42 kinase inhibition (PAK1/CDC42; 5 nM): − (less than 20% inhibition)
- PAK1/CDC42 kinase inhibition (PAK1/CDC42; 50 nM): − (less than 20% inhibition)
- PAK1/CDC42 kinase inhibition (PAK1/CDC42; 1000 nM): − (less than 20% inhibition)
- SYK kinase inhibition (SYK; 5 nM): − (less than 20% inhibition)
- SYK kinase inhibition (SYK; 50 nM): − (less than 20% inhibition)
- SYK kinase inhibition (SYK; 1000 nM): − (less than 20% inhibition)
